Earlier results on 2 molecules are cited in patent US20220202699A1 (priority 2020, published 2022).

For series [1] the following is noted: in vivo.
Series [2] deals with influenza A virus.
The subject of series [3] is influenza A virus. This is another data set of the same source.
Series [4] has as its system inflammatory cell infiltrates (neutrophils and lymphocytes). To be noted: in vivo.
Series [5] has as its system Toll-like receptors (TLR). To be noted: suppress innate immunity.

As to `CC(C)(C)NCC(O)c1ccc(O)c(CO)c1` (stereo not drawn) [Albuterol], in series [1], the bronchodilator effect result is given as “effective bronchodilator”.

On to `CCCCC/C=C\C/C=C\C/C=C\C/C=C\CCCC(=O)OC(COC(=O)CCCCCCCCCCCCCCCCC)COP(=O)(O)OC1C(O)C(O)C(O)C(O)C1O` (stereo not drawn) [PI, phosphatidyl inositol], for which the “binding of the influenza A virus to the surrogate host cells” value in series [2] is given as “prevent the binding”. Besides, the “membrane convergence of influenza A and host cell” value in series [2] (influenza A, model MDCK cells) is on record as “inhibited”. The “binding affinity for the influenza A virus” value in series [3] was “high binding affinity”. In addition, the virus-induced proinflammatory cytokines entry in series [4] was “reduced”. For the same molecule, the “functioning as deactivators of Toll-like receptors (TLR)” value in series [5] is “deactivators of Toll-like receptors”.
